Experimental data reported in PMC3742363 (Chemistry & biology, 2013).
Residue numbers refer to the chain shown, from its start.

Legend:
[1] = molecular target: T1, p38α wt (Mus musculus, UniProt P47811); assay: Kinetics: activity assay at varied ATP concentrations; format: biochemical; conditions: read-out: Km(ATP); activated p38α wt
[2] = molecular target: T2, p38α T106Q (Mus musculus, UniProt P47811, T106Q); assay: as above; format: biochemical; conditions: read-out: Km(ATP); activated p38α T106Q; rate of reaction maintained linearity as high as 1000 μM ATP
T2 sequence (P47811 whole entry T106Q): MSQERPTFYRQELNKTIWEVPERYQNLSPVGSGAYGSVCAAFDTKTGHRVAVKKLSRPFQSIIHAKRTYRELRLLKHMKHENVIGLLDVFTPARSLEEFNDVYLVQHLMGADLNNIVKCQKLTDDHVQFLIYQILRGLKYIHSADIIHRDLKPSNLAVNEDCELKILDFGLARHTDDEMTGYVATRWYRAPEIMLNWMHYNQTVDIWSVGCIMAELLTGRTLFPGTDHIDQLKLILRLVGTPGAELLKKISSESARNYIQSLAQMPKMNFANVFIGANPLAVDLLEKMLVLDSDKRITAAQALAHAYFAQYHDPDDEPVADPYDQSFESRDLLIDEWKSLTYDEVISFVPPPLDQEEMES

[3] = molecular target: Jnk3 wt (Homo sapiens, UniProt P53779); assay: as above; format: biochemical; conditions: read-out: Km(ATP); activated Jnk3 wt
Sequence of Jnk3 wt (P53779 whole entry): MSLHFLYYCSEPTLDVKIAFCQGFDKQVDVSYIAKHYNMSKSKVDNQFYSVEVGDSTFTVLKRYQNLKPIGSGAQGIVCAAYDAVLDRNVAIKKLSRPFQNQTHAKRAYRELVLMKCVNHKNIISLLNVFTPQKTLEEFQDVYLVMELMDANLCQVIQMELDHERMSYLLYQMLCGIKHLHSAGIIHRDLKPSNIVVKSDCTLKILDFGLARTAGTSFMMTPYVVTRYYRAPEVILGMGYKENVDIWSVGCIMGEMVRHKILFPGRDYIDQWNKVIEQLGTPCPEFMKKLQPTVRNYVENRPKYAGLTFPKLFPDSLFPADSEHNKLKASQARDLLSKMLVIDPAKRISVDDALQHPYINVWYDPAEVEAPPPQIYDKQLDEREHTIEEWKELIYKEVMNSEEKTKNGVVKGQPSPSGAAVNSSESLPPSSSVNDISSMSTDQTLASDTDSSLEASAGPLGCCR

[4] = molecular target: Jnk3 M146I (Homo sapiens, UniProt P53779, M146I); assay: as above; format: biochemical; conditions: read-out: Km(ATP); activated Jnk3 M146I
Sequence of Jnk3 M146I (P53779 whole entry M146I): as the sequence (P53779 whole entry) above, with M146I counted along it

[5] = molecular target: T3, p38δ wt (Mus musculus, UniProt Q9Z1B7); assay: as above; format: biochemical; conditions: read-out: Km(ATP); activated p38δ wt
T3 sequence (Q9Z1B7 1-366): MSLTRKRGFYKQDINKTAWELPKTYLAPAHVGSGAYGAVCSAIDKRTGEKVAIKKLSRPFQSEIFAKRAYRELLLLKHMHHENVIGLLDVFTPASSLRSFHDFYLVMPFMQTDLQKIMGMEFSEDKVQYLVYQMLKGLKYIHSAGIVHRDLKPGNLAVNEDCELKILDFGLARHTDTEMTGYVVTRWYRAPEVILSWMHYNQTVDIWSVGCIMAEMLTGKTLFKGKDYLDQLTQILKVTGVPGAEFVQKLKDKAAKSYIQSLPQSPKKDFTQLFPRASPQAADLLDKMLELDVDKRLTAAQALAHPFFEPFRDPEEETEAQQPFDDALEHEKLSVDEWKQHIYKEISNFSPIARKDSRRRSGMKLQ

[6] = molecular target: T4, p38δ M107T (Mus musculus, UniProt Q9Z1B7, M107T); assay: as above; format: biochemical; conditions: read-out: Km(ATP); activated p38δ M107T
T4 sequence (Q9Z1B7 1-366 M107T): T3 sequence (Q9Z1B7 1-366) with M107T

[7] = molecular target: Erk2 wt (Rattus norvegicus, UniProt P63086); conditions: read-out: Km(ATP); activated Erk2 wt
[8] = molecular target: Erk2 Q103T (Rattus norvegicus, UniProt P63086, Q103T); conditions: read-out: Km(ATP); activated Erk2 Q103T
[9] = molecular target: Erk2 Q103T/C164L (Rattus norvegicus, UniProt P63086, C164L/Q103T); conditions: read-out: Km(ATP); activated Erk2 Q103T/C164L
[10] = molecular target: Erk2 Q103A/C164L (Rattus norvegicus, UniProt P63086, C164L/Q103A); conditions: read-out: Km(ATP); activated Erk2 Q103A/C164L
[11] = molecular target: T1, p38α wt; assay: Kinase activity assay; format: biochemical
[12] = molecular target: T2, p38α T106Q; assay: Kinase activity assay; format: biochemical

T1 sequence (P47811 whole entry): as the sequence (P47811 whole entry T106Q) above, with Q106T counted along it

Row | SMILES | Km [1] | Km [2] | Km [3] | Km [4] | Km [5] | Km [6] | Km [7] | Km [8] | Km [9] | Km [10] | Ki [11] | Ki [12]
1 | Nc1ncnc2c1ncn2[C@@H]1O[C@H](COP(=O)(O)OP(=O)(O)OP(=O)(O)O)[C@@H](O)[C@H]1O [ATP] | 229 ± 16 µM | > 1 mM | 8.3 ± 0.6 µM | 66 ± 3 µM | 91 ± 6 µM | 380 ± 40 µM | 120 ± 10 µM | 83 ± 5 µM | 180 ± 20 µM | 137 ± 6 µM | – | –
2 | Cc1ccc(C(=O)Nc2ccc(CN3CCN(C)CC3)c(C(F)(F)F)c2)cc1C#Cc1cnc2cccnn12 [L1, Iclusig] | – | – | – | – | – | – | – | – | – | – | 8.1 ± 0.2 nM | 3.7 ± 0.4 µM
